Consider 3 compounds from US5420276A, “Analogs of oxetanyl purines and pyrimidines” (Abbott Laboratories, priority 1993, dated 1995).

Data set [1] has as its system Herpes simplex type 1 (HSV-1) strain E-377. Description: CPE-inhibition assay, herpes simplex type 1 strain E-377 in Vero cells. In kind it is cell-based, herpes simplex virus type 1. To be noted: for VR (Virus Rating): HSV-1 (E-377); for IC50: Human alphaherpesvirus 1, HSV-1 (E-377), minimum drug concentration that inhibited the CPE by 50%, read-out: ID50 (the source's name). How it is done: (§1) The challenge viruses were propagated and assayed in cells that were pregrown as monolayer cultures in plastic tissue culture flasks and 96-well plates, using cell culture media appropriate for the host cell cultures. The following viruses and host cell cultures were employed:
(§2) green monkey kidney (Vero)
(§3) On the day of use, a weighed sample of each compound to be evaluated was dissolved and diluted in serial 10^0.5 dilutions in the culture medium appropriate for each virus-host cell system.
(§4) Mammalian cells were pregrown as monolayers in wells of COSTAR 96-well tissue culture plates using suitable cell culture media. Stock viruses were pretitered according to the method of Reed and Muench (Amer. J. Hyg. 27:493-497, 1938) and diluted in cell culture medium to yield 32 CCID50 (cell culture infectious dose, 50%) units per 0.1 ml. Antiviral assays were designed to test seven concentrations of each compound, from cytotoxic to noncytotoxic levels, in triplicate against each of the challenge viruses in microtiter plate wells containing suitable cell monolayers. To each of the replicate cell cultures were added 0.1 ml of the test drug solution and 0.1 ml of virus suspension. Cell controls containing medium alone, virus controls containing medium and virus, and drug cytotoxicity controls containing medium and each drug concentration were run simultaneously with the test samples assayed in each experiment. […] The cell monolayers were examined microscopically for virus-induced CPE and for drug cytotoxicity.
(§5) Antiviral activity was determined by calculating the degree of inhibition of virus-induced CPE in drug-treated, virus-infected cell cultures by means of a virus rating (VR). The VR is a standard weighted measurement of antiviral activity taking into account both the degree of CPE inhibition and drug cytotoxicity, and is determined by a modification of the method of Ehrlich et al. (Ann. N.Y. Acad. Sci. 130: 5-16, 1965) as described below. CPE was graded for each individual culture in each microtiter plate well according to the following scale:
(§6) 4=100% of the cells affected by virus;
(§7) 3=75% of the cells affected by virus;
(§8) 2=50% of the cells affected by virus;
(§9) 1=25% of the cells affected by virus;
(§10) 0=No CPE; normal cell monolayer.
(§11) The VR was calculated as 0.1 of the sum of the numerical differences between the recorded CPE grade of each test well and that of the corresponding virus control in the culture plate. Numerical differences between the scores of test wells containing a drug concentration which was partially cytotoxic (p) and their corresponding virus controls were halved.
(§12) The minimum inhibitory drug concentration which reduced the cytopathogenic effect (CPE) by 50% (MIC50) was calculated by using a regression analysis program for semilog curve fitting. A therapeutic index (TI) for each active compound for each susceptible virus was determined by dividing the minimum cytotoxic concentration of the test compound by the MIC50.

Data set [2] relates to Herpes simplex type 2 (HSV-2) strain MS. Put plainly: CPE-inhibition assay, herpes simplex type 2 strain MS in Vero cells. In kind it is cell-based, herpes simplex virus type 2. As to conditions: for VR (Virus Rating): HSV-2 (MS). How it is done: as §1, §2, §3, §4, §5, §6, §7, §8, §9, §10, §11, §12
The nature of data set [3]: Drug cytotoxicity in Vero cells (microscopic, CPE-inhibition assay). In kind it is cell-based. As to conditions: african green monkey, minimum drug concentration causing any cytotoxicity, read-out: MTC. How it is done:
as §4, §5, §12

Data set [4] has as its system Human Cytomegalovirus (HCMV) strain AD169. Put plainly: HCMV virus yield reduction assay. As to conditions: Human betaherpesvirus 5, AD169, 144 h, MRC5 cells; for log reduction at 3.2 µg/mL: 3.2 μg/ml; for log reduction at 10 µg/mL: 10 μg/ml. It is filed as cell-based. How it is done: Human diploid embryonic lung (MRC5) cells were grown in 35 mm wells of 6-well tissue culture plates. Subconfluent cell monolayers were rinsed with phosphate-buffered saline (PBS) and were exposed to 0.5 ml/well of HCMV (strain AD169) suspension for 1.5 hours at 37° C. The virus suspension was diluted in MEM+2% fetal bovine serum (FBS) to yield a multipicity of infection (MOI) of approximately 0.1 plaque forming units (PFU)/cell. Following the virus adsorption period, the inocula were removed and infected cell layers were rinsed with PBS. Aliquiots (2.0 ml) of each test drug concentration (dissolved in MEM supplemented with 2% FBS) were dispensed into triplicate cell cultures: two virus-infected cultures and one uninfected cytotoxicity control culture (exposed to medium without virus for 1.5 hours). Untreated virus-infected control cultures and untreated, uninfected cell control cultures were fed with medium alone. The culture plates were incubated at 37° C. in a humidified atmosphere of 2% CO2 in air. All cell culture fluids were replaced with fresh drug and medium 48 hours postinfection (p.i.). On Day 6 p.i., the cell layers were examined microscopically for cytopathogenic effect (CPE) and drug cytotoxicity. The test and virus control cultures were then harvested by subjecting the cell layers to one cycle of freeze-thawing. The cellular material was scraped into the ambient medium and the contents from replicate cultures were pooled, dispensed into cryotubes and stored at -135° C. The harvested test and virus control samples were thawed and the infectious virus yield was determined by plaque assay in MRC5 cells grown in 12-well cluster plates. Inhibition of HCMV replication by each test compound was determined by comparing the progeny virus yields in the drug-treated cultures with the progeny virus yield in the untreated, virus-infected control cultures.

The nature of data set [5]: in vitro. It is filed as cell-based, African green monkey. To be noted: monkey, vero cells. How it is done:
Vero cell monolayers were harvested by trypsinization. The number of viable cells per ml. was determined by staining an aliquot with trypan blue and counting in a hemocytometer. Cell densities were adjusted in growth medium to contain 4×10^5 cells/mi. 96-well sterile tissue culture plates were seeded with 100 μl/well of the adjusted cell suspensions, i.e., 4×10^4 cells/well. Seeded plates were incubated overnight at 37° C. with CO2.
After overnight incubation, monolayers were approximately confluent. The growth medium was removed and the monolayers in each cell were infected with 100 μl of virus diluted in maintenance medium to produce approximately 90% cytopathogenic effect (CPE) after 2 to 3 days incubation. The virus was allowed to adsorb for 1 hour at 37° C. with 4 to 6% CO2. Controls for cell growth were overlayed with virus-free maintenance medium. The maintenance medium containing residual virus was removed.
The test compounds were dissolved and/or diluted in maintenance medium to the concentration desired for testing and were added to the wells of the plate. Aliquots (100 μl ) of each concentration were added to wells in replicate (duplicate or triplicate). Controls for virus activity were overlayed with drug-free maintenance medium. Replicate wells containing only maintenance medium served as controls for background absorbance levels.
After incubation, the medium was removed from all the wells. 100 μl of neutral red solution was added to each well and the plate was incubated at 37° C. without CO2 for 2 hours. After the 2 hour incubation, the excess neutral red solution was removed. The plates were washed with 100 μl/well of PBS, pH 7.2 and then the PBS was removed.
The neutral red stain taken up by the viable cells was extracted by adding 100 μl/well of acidified methanol, pH 1.0. (The acidified methanol fixed the cells to the well). The plate was allowed to stand at room temperature for at least 15 minutes to allow for maximum extraction. The amount of neutral red stain extracted into the methanol was quantified by determining the absorbance at a wavelength of 540 nm. […]

Structures are written as SMILES. Values after ≈ are worked out from the molar mass of the structure shown. Where two headings read alike, the source gives them in different places.

For the compound `Nc1ccn([C@@H]2O[C@H](CO)[C@H]2CO)c(=O)n1` [Example 22, 1-([2'R,3'R,4'S]-3',4'-Bis(hydroxymethyl)-2'-oxetanyl)cytosine], the “VR (Virus Rating)” value worked out at 2.65 in data set [1] and 1.95 in data set [2]. In addition, the IC50 turned out to be 0.8 µg/mL (≈ 3.52 µM) in data set [1] and 1 µg/mL (≈ 4.4 µM) in data set [2] (Human alphaherpesvirus 2, HSV-2 (MS), minimum drug concentration that inhibited the CPE by 50%, read-out: ID50 (the source's name)). Further, the MCC in data set [3] (HSV-1 (E-377)) and in data set [3] (HSV-2 (MS)) was 10 µg/mL each time. The compound further showed a log reduction at 0.032 µg/mL in data set [4] (0.032 μg/ml) of 0.8. Further, in data set [4] (0.1 μg/ml), the log reduction at 0.1 µg/mL amounted to 1.4. For the same compound, the log reduction at 0.32 µg/mL in data set [4] (0.32 μg/ml) worked out at 1.9. The compound also returned a log reduction at 1 µg/mL in data set [4] (1.0 μg/ml) of 4.1. Besides, the log reduction at 3.2 µg/mL in data set [4] is more than 4.4. In data set [4], this compound returned a log reduction at 10 µg/mL of more than 4.4.

In the case of `O=c1ccn([C@@H]2O[C@H](CO)[C@H]2CO)c(=O)[nH]1` [Example 23, 1-([2'R,3'R,4'S]-3',4'-Bis(hydroxymethyl)-2'-oxetanyl)uracil], in data set [1], the “VR (Virus Rating)” value was 0.6 and the IC50 was 307 µg/mL (≈ 1340 µM). The “VR (Virus Rating)” value in data set [2] is 0.5. In addition, the MCC in data set [3] (HSV-1 (E-377)) was found to be 320 µg/mL. In addition, the MCC in data set [3] (HSV-2 (MS)) was determined as 320 µg/mL. In data set [4], this compound came in with a log reduction at 3.2 µg/mL of 0.2 and a log reduction at 10 µg/mL of 0.4. In data set [4] (32 μg/ml), the log reduction at 32 µg/mL was found to be 0.5. In addition, in data set [4] (100 μg/ml), the log reduction at 100 µg/mL was 0.9. The same compound returned a log reduction at 320 µg/mL in data set [4] (320 μg/ml) of 1.9.

What is called CC50 is the concentration at which the toxic effect on the cells reaches its halfway point. Regarding `O=c1[nH]c(=O)n([C@@H]2O[C@H](CO)[C@H]2CO)cc1C=CBr` [Example 44, 1-([2'R, 3'R, 4'S]-3',4'-Bis(hydroxymethyl)-2'-oxetanyl)-5-(2-bromo-1-vinyl)uracil], the CC50 in data set [5] was more than 1000 µg/mL.
